PMC11267547, “Advancing drug discovery through assay development: a survey of tool compounds within the human solute carrier superfamily” (Frontiers in Pharmacology, 2024)
Like-named read-outs stand apart in the source and are kept apart here.

Tests used:
Assay type in all cases: cell-based
SLC6A9 = molecular target: T1, SLC6A9 (Homo sapiens, UniProt P48067); experiment: RESOLUTE assay on SLC6A9
T1 construct: expressed in transfected cells; host or cells: Jump In T-REx HEK293 (general cell-line paragraph)
T1 sequence (P48067 1-706): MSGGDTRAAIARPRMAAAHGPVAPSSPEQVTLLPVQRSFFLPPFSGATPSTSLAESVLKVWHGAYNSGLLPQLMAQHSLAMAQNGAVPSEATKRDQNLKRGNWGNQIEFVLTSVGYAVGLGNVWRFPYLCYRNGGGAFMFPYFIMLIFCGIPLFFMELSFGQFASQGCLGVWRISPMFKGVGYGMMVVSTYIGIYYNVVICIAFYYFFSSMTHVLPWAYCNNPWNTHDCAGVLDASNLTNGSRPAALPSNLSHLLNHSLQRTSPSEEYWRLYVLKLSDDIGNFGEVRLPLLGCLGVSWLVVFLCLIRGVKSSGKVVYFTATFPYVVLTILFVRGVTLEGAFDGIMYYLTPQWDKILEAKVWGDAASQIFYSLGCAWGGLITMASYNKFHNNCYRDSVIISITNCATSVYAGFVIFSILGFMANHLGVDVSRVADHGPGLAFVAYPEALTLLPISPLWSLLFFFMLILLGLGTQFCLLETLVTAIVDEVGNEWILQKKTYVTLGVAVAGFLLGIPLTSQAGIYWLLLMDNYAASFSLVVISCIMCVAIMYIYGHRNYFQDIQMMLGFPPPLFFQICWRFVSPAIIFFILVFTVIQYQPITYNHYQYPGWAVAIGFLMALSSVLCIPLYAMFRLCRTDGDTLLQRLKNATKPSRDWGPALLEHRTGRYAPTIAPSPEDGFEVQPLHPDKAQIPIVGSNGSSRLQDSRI
Procedure: (§1) FLIPR Membrane Potential Blue Dye was used to detect the compound activities for those membrane transporters that are electrogenic or whose activity is associated with changes in membrane potential, as previously described ([Jensen and BräunerOsborne, 2004]). In brief, cells are seeded at cell line-specific density in black clear-bottom poly-D-Lysine-coated 384-well plates (Greiner Bio-One) in DMEM high-glucose medium with 10% FBS, 1% P/S, and 2 mM UltraGlutamine I (25 µL/well). Furthermore, 24 h after seeding, the culture medium is removed, and the cells are loaded with 20 µL/well of 0.5 X FMP Blue Dye in assay buffer (modified Tyrode’s buffer, 130 mM NaCl, 5 mM KCl, 1 mM MgCl2, 2 mM CaCl2, 5 mM NaHCO3, and 20 mM HEPES pH 7.4). The plates are subsequently incubated for at least 30 min at room temperature in the dark. Then, 10 µL/well of test compounds and controls is added at defined concentrations (0.5% DMSO final conc.) in the FLIPR TETRA instrument (Molecular Devices), and emitted fluorescence is recorded using a λexc 510–545-nm/λem 565–625-nm filter. The dose–response curves for the 19 compounds were prepared starting from 3 µM (final top concentration), the half-log serial dilution factor. For data analysis, Genedata Screener 19.0 software was used.
(§2) The robust Z prime factor (RZ’ factor) was calculated with the following formula: RZ^′=1−3∗RSDMAX+RSDMIN/AbsMAX − MIN, where the RZ’ factor is based on the same formula as the Z′ factor ([Zhang et al., 1999]) but standard deviations and means are replaced by the robust standard deviations and medians, respectively. Curve fitting profiles were performed on each dose–response curve with the analyzer module of Genedata Screener 19.0 on % activity.

SLC6A12 = molecular target: T2, SLC6A12 (Homo sapiens, UniProt P48065); experiment: Membrane potential dye-based assay, HEK293–JumpIn–SLC6A12 cells
T2 construct: expressed in transfected cells; host or cells: Jump In T-REx HEK293
T2 sequence (P48065 1-614): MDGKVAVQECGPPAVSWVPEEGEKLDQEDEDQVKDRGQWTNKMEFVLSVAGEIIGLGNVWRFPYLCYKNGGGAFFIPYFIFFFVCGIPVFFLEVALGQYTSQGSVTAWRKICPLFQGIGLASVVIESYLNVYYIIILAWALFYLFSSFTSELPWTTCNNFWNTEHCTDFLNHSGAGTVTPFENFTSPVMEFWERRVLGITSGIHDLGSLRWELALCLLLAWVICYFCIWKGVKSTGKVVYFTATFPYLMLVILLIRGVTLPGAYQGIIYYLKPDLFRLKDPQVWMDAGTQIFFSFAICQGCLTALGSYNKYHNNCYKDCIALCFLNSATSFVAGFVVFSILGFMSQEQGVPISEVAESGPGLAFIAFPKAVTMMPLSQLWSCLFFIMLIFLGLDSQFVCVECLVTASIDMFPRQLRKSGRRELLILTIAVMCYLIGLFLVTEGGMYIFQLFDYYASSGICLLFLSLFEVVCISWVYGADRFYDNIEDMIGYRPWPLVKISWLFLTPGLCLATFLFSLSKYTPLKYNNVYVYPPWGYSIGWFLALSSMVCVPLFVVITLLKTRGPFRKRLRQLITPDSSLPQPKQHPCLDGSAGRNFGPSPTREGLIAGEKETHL
Procedure: as §1, §2

SLC6A8 = molecular target: T3, SLC6A8 (Homo sapiens, UniProt P48029); experiment: RESOLUTE assay on SLC6A8
T3 construct: expressed in transfected cells; host or cells: Jump In T-REx HEK293 (general cell-line paragraph)
T3 sequence (P48029 1-635): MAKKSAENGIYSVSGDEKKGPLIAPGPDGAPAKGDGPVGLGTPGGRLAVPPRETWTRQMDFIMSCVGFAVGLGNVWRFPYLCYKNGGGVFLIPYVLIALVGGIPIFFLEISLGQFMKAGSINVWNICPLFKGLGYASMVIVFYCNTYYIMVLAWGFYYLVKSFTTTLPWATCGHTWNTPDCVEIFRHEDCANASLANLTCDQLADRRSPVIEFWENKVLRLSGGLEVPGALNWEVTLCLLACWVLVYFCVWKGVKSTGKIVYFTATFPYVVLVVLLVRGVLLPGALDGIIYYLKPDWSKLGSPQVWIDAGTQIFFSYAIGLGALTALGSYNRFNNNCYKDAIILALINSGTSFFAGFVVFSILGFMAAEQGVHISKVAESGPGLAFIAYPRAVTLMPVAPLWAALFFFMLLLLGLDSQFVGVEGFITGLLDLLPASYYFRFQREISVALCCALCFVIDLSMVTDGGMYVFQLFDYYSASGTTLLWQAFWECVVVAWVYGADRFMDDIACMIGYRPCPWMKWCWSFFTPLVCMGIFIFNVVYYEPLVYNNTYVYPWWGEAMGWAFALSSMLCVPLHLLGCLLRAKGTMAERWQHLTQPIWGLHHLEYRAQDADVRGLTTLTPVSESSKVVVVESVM
Procedure: as §1, §2

[1] = target SLC6A9, Flipr Membrane Potential-Blue-Dye, read-out: pIC50 (act) (converted)
[2] = target SLC6A12, Flipr Membrane Potential-Blue-Dye, read-out: pIC50 (act) (converted)
[3] = target SLC6A8, Flipr Membrane Potential-Blue-Dye, read-out: pIC50 (act) (converted)

| Structure (SMILES) | IC50 (SLC6A9; [1]) [µM] | IC50 (SLC6A12; [2]) [µM] | IC50 (SLC6A8; [3]) [µM] | inhibition at 3 µM (SLC6A12; read-out: Inhibition (3 µM) [%], SLC6A12, MP dye) [%] | IC50 (SLC6A9) [µM] | IC50 (SLC6A12) [µM] | IC50 (SLC6A8) [µM] |
| --- | --- | --- | --- | --- | --- | --- | --- |
| Cc1c(NC(=O)c2cc(C(N)=O)nc3cc(F)ccc23)c(C(F)(F)F)nn1Cc1ccc(C#N)cc1 [BAY-876] | > 3.16 | > 3.16 | > 3.16 |  |  |  |  |
| CN1C2CCC1CC(OC(c1ccccc1)c1ccccc1)C2 (stereo not shown) [Benzotropine] | > 3.16 | > 3.16 | > 3.16 |  |  |  |  |
| CCNC(=O)/C=C/c1cccc(Br)c1 [Cinromide] | > 3.16 | > 3.16 | > 3.16 |  |  |  |  |
| O=S(=O)(O)c1cc(N=C=S)ccc1/C=C/c1ccc(N=C=S)cc1S(=O)(=O)O [DIDS] | > 3.16 | > 3.16 | > 3.16 |  |  |  |  |
| COCCOc1cc(CC2CCN(CCc3ccc4c(c3)C(=O)CCO4)CC2)ccc1Br [DSP-1053] | > 3.16 | > 3.16 | > 3.16 | 36 |  |  |  |
| CNCCCN1c2ccccc2CCc2ccccc21 [Desipramine] | > 3.16 | > 3.16 | > 3.16 |  |  |  |  |
| CC(C)[C@H]1CN[C@H](C(=O)O)[C@H]1CC(=O)O [Dihydrokainate] | > 3.16 | > 3.16 | > 3.16 |  |  |  |  |
| N#Cc1ccc(Nc2cnccc2SCc2ccccc2C(=O)O)c2ccccc12 [KPH2f] | > 3.16 | > 3.16 | > 3.16 |  |  |  |  |
| C=C(C)[C@H]1CN[C@H](C(=O)O)[C@H]1CC(=O)O [Kainic acid] |  |  |  |  | > 3.16 | > 3.16 | > 3.16 |
| CCOC(=O)N1CCC(=C2c3ccc(Cl)cc3CCc3cccnc32)CC1 [Loratadine] | > 3.16 | > 3.16 | > 3.16 |  |  |  |  |
| Nc1nc2ccc(OC(F)(F)F)cc2s1 [Riluzole] | > 3.16 | > 3.16 | > 3.16 |  |  |  |  |
| N[C@H](C(=O)O)[C@H](OCc1cccc(NC(=O)c2ccc(C(F)(F)F)cc2)c1)C(=O)O [TFB-TBOA] | > 3.16 | > 3.16 | > 3.16 |  |  |  |  |
| NC(C(=O)O)C(OCc1ccccc1)C(=O)O (stereo not drawn) [Threo-beta-benzyloxyaspartic acid, Threo-beta-Benzyloxyaspartic acid] | > 3.16 | > 3.16 | > 3.16 |  |  |  |  |
| Cc1ccsc1C(=CCCN1CCC[C@@H](C(=O)O)C1)c1sccc1C [Tiagabine] | > 3.16 | > 3.16 | > 3.16 |  |  |  |  |
| COc1ccc(C2C(C#N)=C(N)OC3=C2C(=O)CC(c2cccc4ccccc24)C3)cc1 (stereo not shown) [UCPH-101] | > 3.16 | > 3.16 | > 3.16 |  |  |  |  |
| CC1C(C#N)=C(N)OC2=C1C(=O)CC(c1cccc3ccccc13)C2 (stereo not shown) [UCPH-102] | > 3.16 | > 3.16 | > 3.16 |  |  |  |  |
| Fc1ccc(C(OCCN2CCN(CCCc3ccccc3)CC2)c2ccc(F)cc2)cc1 [Vanoxerine (GBR12909), Vanoxerine] | > 3.16 | > 3.16 | > 3.16 |  |  |  |  |
| N[C@@H](CC(=O)Nc1ccc(Oc2cc(F)c(F)cc2Br)cc1)C(=O)O [WAY-213613] | > 3.16 | > 3.16 | > 3.16 |  |  |  |  |
